# Measured values from publication PMC7211202 (Investigational New Drugs, 2019).
# Values joined by “and” are separate entries in the source; they are usually repeats but may differ in a detail not shown here. Equal entries are not always repeated.
# Test: Patient incidence of adverse events (CTCAE version 4.0)
# Assay type: in vivo
# From the text: Each patient was monitored for 21 days for the occurrence of dose-limiting toxicities (DLTs), defined as febrile neutropenia, neutropenic infection, grade 4 neutropenia lasting >7 days, grade ≥ 3 thrombocytopenia lasting >7 days (solid tumors only), grade 3 thrombocytopenia with grade ≥ 2 bleeding (solid tumors only), grade 3 or 4 thrombocytopenia with grade > 1 bleeding (multiple myeloma only), grade 4 thrombocytopenia (solid tumors only), or grade 4 thrombocytopenia lasting >14 days (multiple myeloma only), or as grade ≥ 3 nausea, vomiting, or diarrhea after support; grade 3 fatigue lasting >7 days; any other grade ≥ 3 adverse event (AE); grade ≥ 3 kidney injury (multiple myeloma only), or treatment-related AEs not returning to grade ≤ 1 (solid tumors only) per Common Terminology Criteria for Adverse Events (CTCAE), version 4.0. The MTD was defined as the maximum dose, at which the probability of a DLT was ≤25% in Part 1A and ≤ 33% in Parts 1B and 1C. Treatment continued until disease progression, intolerable toxicity, or withdrawal of consent.
# AEs were recorded for all enrolled patients.
# [1] = 240-mg dose expansion, Other Solid (n = 16)
# [2] = 240-mg dose expansion, Total (n = 68)
# [3] = 240-mg dose expansion, WDLPS (n = 10)
# [4] = 240-mg dose expansion, all patients
structure (smiles),measurement,setting,value
CC(C)[C@@H](CS(=O)(=O)C(C)C)N1C(=O)[C@@](C)(CC(=O)O)C[C@H](c2cccc(Cl)c2)[C@H]1c1ccc(Cl)cc1 [AMG 232],"Serious, treatment-related AE: Hyperlipasemia (grade 3)",[1],0 n (%)
same,"Serious, treatment-related AE: Nausea (grade 3)",[1],0 n (%)
same,"Serious, treatment-related AE: Pulmonary embolism (grade 3)",[1],0 n (%)
same,"Serious, treatment-related AE: Vomiting (grade 3)",[1],0 n (%)
same,Treatment-related AE: Anemia,[1],3 (19) n (%)
same,Treatment-related AE: Asthenia,[1],2 (13) n (%)
same,Treatment-related AE: Decrease appetite,[1],4 (25) n (%)
same,Treatment-related AE: Diarrhea,[1],8 (50) n (%)
same,Treatment-related AE: Dysgeusia,[1],2 (13) n (%)
same,Treatment-related AE: Fatigue,[1],6 (38) n (%)
same,Treatment-related AE: Nausea,[1],11 (69) n (%)
same,Treatment-related AE: Neutropenia,[1],1 (6) n (%)
same,Treatment-related AE: Thrombocytopenia,[1],2 (13) n (%)
same,Treatment-related AE: Vomiting,[1],8 (50) n (%)
same,Patients with any treatment-emergent AE,[2],67 (99%) n (%) and 67 (99) n (%)
same,Patients with any treatment-emergent serious AE,[2],29 (43%) n (%) and 29 (43) n (%)
same,"Patients with any treatment-related AE, Grade 3",[2],25 (37) n (%)
same,"Patients with any treatment-related AE, Grade 4",[2],8 (12) n (%)
same,"Patients with any treatment-related AE, Grade 5",[2],0 n (%)
same,"Serious, treatment-related AE: Dehydration (grade 3)",[2],1 (2) n (%)
same,"Serious, treatment-related AE: Diarrhea (grade 3)",[2],1 (2) n (%)
same,"Serious, treatment-related AE: Hyperamylasemia (grade 3)",[2],1 (2) n (%)
same,"Serious, treatment-related AE: Hyperlipasemia (grade 3)",[2],1 (2) n (%)
same,"Serious, treatment-related AE: Nausea (grade 3)",[2],1 (2) n (%)
same,"Serious, treatment-related AE: Pulmonary embolism (grade 3)",[2],1 (2) n (%)
same,"Serious, treatment-related AE: Vomiting (grade 3)",[2],3 (4) n (%)
same,Treatment-related AE: Anemia,[2],10 (15) n (%)
same,Treatment-related AE: Asthenia,[2],9 (13) n (%)
same,Treatment-related AE: Decrease appetite,[2],28 (41) n (%)
same,Treatment-related AE: Diarrhea,[2],46 (68) n (%)
same,Treatment-related AE: Dysgeusia,[2],9 (13) n (%)
same,Treatment-related AE: Fatigue,[2],32 (47) n (%)
same,Treatment-related AE: Nausea,[2],46 (68) n (%)
same,Treatment-related AE: Neutropenia,[2],12 (18) n (%)
same,Treatment-related AE: Thrombocytopenia,[2],14 (21) n (%)
same,Treatment-related AE: Vomiting,[2],32 (47) n (%)
same,"Patients with any serious, treatment-related AE",[3],2 (20) n (%)
same,Patients with any treatment-emergent AE,[3],10 (100) n (%)
same,Patients with any treatment-emergent serious AE,[3],5 (50) n (%)
same,Patients with any treatment-related AE,[3],10 (100) n (%)
same,"Patients with any treatment-related AE, Grade 3",[3],6 (60) n (%)
same,"Patients with any treatment-related AE, Grade 4",[3],3 (30) n (%)
same,"Patients with any treatment-related AE, Grade 5",[3],0 n (%)
same,"Serious, treatment-related AE: Dehydration (grade 3)",[3],1 (10) n (%)
same,"Serious, treatment-related AE: Diarrhea (grade 3)",[3],0 n (%)
same,"Serious, treatment-related AE: Hyperamylasemia (grade 3)",[3],0 n (%)
same,"Serious, treatment-related AE: Hyperlipasemia (grade 3)",[3],0 n (%)
same,"Serious, treatment-related AE: Nausea (grade 3)",[3],0 n (%)
same,"Serious, treatment-related AE: Pulmonary embolism (grade 3)",[3],1 (10) n (%)
same,"Serious, treatment-related AE: Vomiting (grade 3)",[3],0 n (%)
same,Treatment-related AE: Anemia,[3],5 (50) n (%)
same,Treatment-related AE: Asthenia,[3],0 n (%)
same,Treatment-related AE: Decrease appetite,[3],7 (70) n (%)
same,Treatment-related AE: Diarrhea,[3],9 (90) n (%)
same,Treatment-related AE: Dysgeusia,[3],1 (10) n (%)
same,Treatment-related AE: Fatigue,[3],8 (80) n (%)
same,Treatment-related AE: Nausea,[3],10 (100) n (%)
same,Treatment-related AE: Thrombocytopenia,[3],6 (60) n (%)
same,Treatment-related AE: Vomiting,[3],7 (70) n (%)
same,Treatment-emergent AE: anemia,[4],25%
same,Treatment-emergent AE: decreased appetite,[4],41%
same,Treatment-emergent AE: diarrhea,[4],72%
same,Treatment-emergent AE: fatigue,[4],53%
same,Treatment-emergent AE: nausea,[4],72%
same,Treatment-emergent AE: thrombocytopenia,[4],24%
same,Treatment-emergent AE: vomiting,[4],59%
same,Treatment-related AE: Diarrhea,[4],68%
same,Treatment-related AE: Fatigue,[4],47%
same,Treatment-related AE: Nausea,[4],68%
same,Treatment-related AE: Thrombocytopenia,[4],21%
same,Treatment-related AE: Vomiting,[4],47%
same,Treatment-related AE: decreased appetite,[4],41%
same,Patients with fatal AEs while on study,"240-mg dose expansion, two with disease progression and one with physical deterioration",Three
same,AE resulting in treatment discontinuation: febrile neutropenia,dose escalation,1 n
same,AE resulting in treatment discontinuation: neutropenia,dose escalation,2 n
same,AE resulting in treatment discontinuation: thrombocytopenia,dose escalation,5 n
same,Patients with AEs resulting in treatment discontinuation,dose escalation,eight
same,Patients with fatal AEs of disease progression while on study,dose escalation,Four
same,Patients with any treatment-emergent AE,"dose escalation, 15 mg (n = 3)",1 (33) n (%)
same,Patients with any treatment-emergent serious AE,"dose escalation, 15 mg (n = 3)",1 (33) n (%)
same,Patients with any treatment-related AE,"dose escalation, 15 mg (n = 3)",1 (33) n (%)
same,"Patients with any treatment-related AE, Grade 3","dose escalation, 15 mg (n = 3)",0 n (%)
same,"Patients with any treatment-related AE, Grade 4","dose escalation, 15 mg (n = 3)",0 n (%)
same,"Patients with any treatment-related AE, Grade 5","dose escalation, 15 mg (n = 3)",0 n (%)
same,Patients with any treatment-related serious AE,"dose escalation, 15 mg (n = 3)",0 n (%)
same,Treatment-related AE: Abdominal pain,"dose escalation, 15 mg (n = 3)",0 n (%)
same,Treatment-related AE: Anemia,"dose escalation, 15 mg (n = 3)",0 n (%)
same,Treatment-related AE: Asthenia,"dose escalation, 15 mg (n = 3)",0 n (%)
same,Treatment-related AE: Decrease appetite,"dose escalation, 15 mg (n = 3)",0 n (%)
same,Treatment-related AE: Diarrhea,"dose escalation, 15 mg (n = 3)",0 n (%)
same,Treatment-related AE: Dysgeusia,"dose escalation, 15 mg (n = 3)",0 n (%)
same,Treatment-related AE: Fatigue,"dose escalation, 15 mg (n = 3)",1 (33) n (%)
same,Treatment-related AE: Myalgia,"dose escalation, 15 mg (n = 3)",0 n (%)
same,Treatment-related AE: Nausea,"dose escalation, 15 mg (n = 3)",0 n (%)
same,Treatment-related AE: Neutropenia,"dose escalation, 15 mg (n = 3)",0 n (%)
same,Treatment-related AE: Thrombocytopenia,"dose escalation, 15 mg (n = 3)",0 n (%)
same,Treatment-related AE: Upper abdominal pain,"dose escalation, 15 mg (n = 3)",0 n (%)
same,Treatment-related AE: Vomiting,"dose escalation, 15 mg (n = 3)",0 n (%)
same,Treatment-related serious AE: Abdominal pain (grade 2),"dose escalation, 15 mg (n = 3)",0 n (%)
same,Treatment-related serious AE: Dehydration (grade 2),"dose escalation, 15 mg (n = 3)",0 n (%)
same,Treatment-related serious AE: Diarrhea,"dose escalation, 15 mg (n = 3)",0 n (%)
same,"Treatment-related serious AE: Diarrhea, Grade 2","dose escalation, 15 mg (n = 3)",0 n (%)
same,"Treatment-related serious AE: Diarrhea, Grade 3","dose escalation, 15 mg (n = 3)",0 n (%)
same,Treatment-related serious AE: Febrile neutropenia (grade 3),"dose escalation, 15 mg (n = 3)",0 n (%)
same,Treatment-related serious AE: Hematemesis (grade 3),"dose escalation, 15 mg (n = 3)",0 n (%)
same,Treatment-related serious AE: Nausea (grade 3),"dose escalation, 15 mg (n = 3)",0 n (%)
same,Treatment-related serious AE: Neutropenia (grade 4),"dose escalation, 15 mg (n = 3)",0 n (%)
same,Treatment-related serious AE: Non-cardiac chest pain (grade 3),"dose escalation, 15 mg (n = 3)",0 n (%)
same,Treatment-related serious AE: Thrombocytopenia (grade 4),"dose escalation, 15 mg (n = 3)",0 n (%)
same,Treatment-related serious AE: Vomiting,"dose escalation, 15 mg (n = 3)",0 n (%)
same,"Treatment-related serious AE: Vomiting, Grade 2","dose escalation, 15 mg (n = 3)",0 n (%)
same,"Treatment-related serious AE: Vomiting, Grade 3","dose escalation, 15 mg (n = 3)",0 n (%)
same,Patients with any treatment-emergent AE,"dose escalation, 30 mg (n = 3)",3 (100) n (%)
same,Patients with any treatment-emergent serious AE,"dose escalation, 30 mg (n = 3)",0 n (%)
same,Patients with any treatment-related AE,"dose escalation, 30 mg (n = 3)",1 (33) n (%)
same,"Patients with any treatment-related AE, Grade 3","dose escalation, 30 mg (n = 3)",0 n (%)
same,"Patients with any treatment-related AE, Grade 4","dose escalation, 30 mg (n = 3)",0 n (%)
same,"Patients with any treatment-related AE, Grade 5","dose escalation, 30 mg (n = 3)",0 n (%)
same,Patients with any treatment-related serious AE,"dose escalation, 30 mg (n = 3)",0 n (%)
same,Treatment-related AE: Abdominal pain,"dose escalation, 30 mg (n = 3)",0 n (%)
same,Treatment-related AE: Anemia,"dose escalation, 30 mg (n = 3)",0 n (%)
same,Treatment-related AE: Asthenia,"dose escalation, 30 mg (n = 3)",0 n (%)
same,Treatment-related AE: Decrease appetite,"dose escalation, 30 mg (n = 3)",0 n (%)
same,Treatment-related AE: Diarrhea,"dose escalation, 30 mg (n = 3)",1 (33) n (%)
same,Treatment-related AE: Dysgeusia,"dose escalation, 30 mg (n = 3)",0 n (%)
same,Treatment-related AE: Fatigue,"dose escalation, 30 mg (n = 3)",1 (33) n (%)
same,Treatment-related AE: Myalgia,"dose escalation, 30 mg (n = 3)",0 n (%)
same,Treatment-related AE: Nausea,"dose escalation, 30 mg (n = 3)",1 (33) n (%)
same,Treatment-related AE: Neutropenia,"dose escalation, 30 mg (n = 3)",0 n (%)
same,Treatment-related AE: Thrombocytopenia,"dose escalation, 30 mg (n = 3)",0 n (%)
same,Treatment-related AE: Upper abdominal pain,"dose escalation, 30 mg (n = 3)",0 n (%)
same,Treatment-related AE: Vomiting,"dose escalation, 30 mg (n = 3)",1 (33) n (%)
same,Treatment-related serious AE: Abdominal pain (grade 2),"dose escalation, 30 mg (n = 3)",0 n (%)
